Our source for the Dmax, DC50 and IC50 values is patent US20260092057A1, “BCL-XL/BCL-2 DEGRADERS AND USES THEREOF” (Kymera Therapeutics, Inc., priority 2022, published 2026).

What all share (assay type): cell-based
Experiment [1] has as its target T1, BCL-XL (Homo sapiens, UniProt Q07817).
T1 construct: BCL-XL degradation results in MOLT-4 cells for compounds of the invention; endogenous in cells; host or cells: MOLT-4
Nature of the experiment: BCL-XL degradation assay in MOLT-4 cells (ELISA, 6 h). Conditions: for DC50: read-out: Bcl-xL ELISA in MOLT-4 degradation 6 h: External Abs-DC50. A general note: In an ELISA, binding on a coated surface is turned into a signal by an enzyme label.

In experiment [2] the test system is Caki-2 cells. Kind of experiment: CTG (CellTiter-Glo) cell viability assay, Caki-2. Conditions: Homo sapiens, CAKI-2, 72 h, Caki-2, 3-day; read-out: CTG Chempartner/PHA- Caki-2 3-day: Average external-IC50. Summed up: (§1)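 Viability read by CellTiter-Glo luminescence after 3 days' compound exposure at 37 °C under 5% CO2, with 10,000 cells per well. Dosing was nine 1:3 dilutions starting at 10 µM, DMSO normalized to 0.2%; IC50 values come from three-parameter logistic curve fitting.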

The subject of experiment [3] is MOLT-4 cells. Kind of experiment: CTG (CellTiter-Glo) cell viability assay, MOLT-4. Conditions: Homo sapiens, MOLT-4, 72 h, MOLT-4, 3 day; read-out: CTG Cell Viability Assay - MOLT-4 3 day: Average external-IC50. In a few lines: as §1
For orientation: ATP-based viability assays read luminescence as a measure of living cells.

The Dmax is the largest share of the target that was removed. The low end stands for shallow degradation, the high end for deep degradation. Broadly, the DC50 is the concentration giving 50% degradation.

T1 sequence (Q07817 whole entry): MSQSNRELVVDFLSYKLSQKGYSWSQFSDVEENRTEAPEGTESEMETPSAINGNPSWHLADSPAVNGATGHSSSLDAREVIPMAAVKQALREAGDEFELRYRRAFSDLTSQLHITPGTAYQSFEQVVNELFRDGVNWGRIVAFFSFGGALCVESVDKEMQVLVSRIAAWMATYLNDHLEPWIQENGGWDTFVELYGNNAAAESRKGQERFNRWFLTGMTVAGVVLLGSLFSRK

As for `Cc1ncsc1-c1ccc([C@H](C)NC(=O)[C@@H]2C[C@@H](O)CN2C(=O)[C@@H](NC(=O)CCCCCCC(=O)N2CCN(CC[C@H](CSc3ccccc3)Nc3ccc(S(=O)(=O)NC(=O)c4ccc(N5CCC([C@@H](O)c6ccccc6-c6ccc(Cl)cc6)CC5)cc4)cc3S(=O)(=O)C(F)(F)F)CC2)C(C)(C)C)cc1` [I-120], in experiment [1], the Dmax was 50 to 75% and the DC50 is 0.01 to 0.1 µM. Further, the IC50 in experiment [2] fell in the range of 10 to 30 µM. In addition, the IC50 in experiment [3] is below 0.1 µM.

`Cc1ncsc1-c1ccc([C@H](C)NC(=O)[C@@H]2C[C@@H](O)CN2C(=O)[C@@H](NC(=O)CCCCCCCCN2CCN(Cc3ccc(-c4ccc(Cl)cc4)c(CN4CCN(c5ccc(C(=O)NS(=O)(=O)c6ccc(N[C@H](CCN(C)C)CSc7ccccc7)c([N+](=O)[O-])c6)cc5)CC4)c3)CC2)C(C)(C)C)cc1` [I-9] yielded a Dmax in experiment [1] below 50%. In addition, the DC50 in experiment [1] lay within 0.5 to 1 µM. For the same molecule, the IC50 was above 30 µM in experiment [2] and above 3 µM in experiment [3].

Consider `Cc1ncsc1-c1ccc([C@H](C)NC(=O)[C@@H]2CC(O)CN2C(=O)[C@@H](NC(=O)CCCCCCC(=O)N2CCN(c3ccc(-c4ccc(Cl)cc4)c(CN4CCN(c5ccc(C(=O)NS(=O)(=O)c6ccc(N[C@H](CCN(C)C)CSc7ccccc7)c([N+](=O)[O-])c6)cc5)CC4)c3)CC2)C(C)(C)C)cc1` (stereo partly drawn) [I-4], for which, in experiment [1], the Dmax is 50 to 75% and the DC50 was in the range of 0.5 to 1 µM. In addition, the IC50 in experiment [2] is above 30 µM. The IC50 in experiment [3] is above 3 µM.
